# In PubChem BioAssay (NCI):
#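 These data come from cells grown in 96-well plates and exposed to compound for 48 hours at five concentrations. The concentration for 50% growth inhibition is given as GI50. TGI marks complete inhibition of growth.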
# Test system: MALME-3M melanoma
# Experiment: inhibition of tumour cell growth, NCI panel, 48 h
Structure (SMILES),GI50,TGI
O=C1/C(=C/c2ccc(Br)cc2)COc2ccc(O)c(O)c21,1.11 µM,3.35 µM
N#Cc1c(NN)n(C2OC(CO)C(O)C2O)c2ncnc(N)c12 (stereo not given),0.0858 µM,1.35 µM
CCCCCCNC(=O)c1cc(NCc2cc(O)ccc2O)ccc1O,2.74 µM,8.29 µM
CC(CCC=O)CCOCc1ccccc1 (stereo not given),–,> 100 µM
Cc1ccc(C)c(C2=C(c3cn(C)c4ccccc34)C(=O)NC2=O)c1,> 25 µM,> 25 µM
O=C(Nc1nc2ccc(C(F)(F)F)cc2s1)c1cc(Cl)ccc1O,0.626 µM,4.48 µM
COc1cnc2c(c1)C(=O)c1c-2n(CCCNC(C)C)c(=O)c2cc(Cl)ccc12,1.5 µM,3.07 µM
COc1ccc2c(c1)CCCC(Br)C2=O (stereo not given),–,21.5 µM
COc1ccc(-n2cc(-c3cc(OC)c(OC)c(OC)c3)c(C(=O)C(F)(F)F)c2C)cc1,> 100 µM,> 100 µM
COc1cc(N(CCC#N)CCC#N)ccc1/C(N=Nc1ccc([N+](=O)[O-])cc1)=N/NC(=O)c1cc(Br)ccc1O,44.2 µg/mL,96.1 µg/mL
C=C1C(=O)OC2CCN3CC=C(COC(=O)C(C)(O)C4(CO4)C1C)C23 (stereo not given),–,> 100 µM
CS(=O)(=O)Nc1ccc2c(c1)oc(=O)c1ccccc12,–,> 100 µM

# Test system: UACC-62 melanoma
# Experiment: inhibition of tumour cell growth, NCI panel, 48 h
Structure (SMILES),GI50,TGI
O=C1/C(=C/c2ccc(Br)cc2)COc2ccc(O)c(O)c21,1.07 µM,2.4 µM
N#Cc1c(NN)n(C2OC(CO)C(O)C2O)c2ncnc(N)c12 (stereo not given),0.126 µM,0.308 µM
CCCCCCNC(=O)c1cc(NCc2cc(O)ccc2O)ccc1O,3.78 µM,14.7 µM
CC(CCC=O)CCOCc1ccccc1 (stereo not given),–,> 100 µM
Cc1ccc(C)c(C2=C(c3cn(C)c4ccccc34)C(=O)NC2=O)c1,> 25 µM,> 25 µM
O=C(Nc1nc2ccc(C(F)(F)F)cc2s1)c1cc(Cl)ccc1O,0.337 µM,3.52 µM
COc1cnc2c(c1)C(=O)c1c-2n(CCCNC(C)C)c(=O)c2cc(Cl)ccc12,0.303 µM,1.91 µM
COc1ccc2c(c1)CCCC(Br)C2=O (stereo not given),–,8.88 µM
COc1ccc(-n2cc(-c3cc(OC)c(OC)c(OC)c3)c(C(=O)C(F)(F)F)c2C)cc1,15.6 µM,> 100 µM
COc1cc(N(CCC#N)CCC#N)ccc1/C(N=Nc1ccc([N+](=O)[O-])cc1)=N/NC(=O)c1cc(Br)ccc1O,40.9 µg/mL,> 150 µg/mL
C=C1C(=O)OC2CCN3CC=C(COC(=O)C(C)(O)C4(CO4)C1C)C23 (stereo not given),–,> 100 µM
CS(=O)(=O)Nc1ccc2c(c1)oc(=O)c1ccccc12,–,> 100 µM

# Test system: SNB-19 CNS
# Experiment: inhibition of tumour cell growth, NCI panel, 48 h
Structure (SMILES),GI50,TGI
O=C1/C(=C/c2ccc(Br)cc2)COc2ccc(O)c(O)c21,1.38 µM,3.05 µM
N#Cc1c(NN)n(C2OC(CO)C(O)C2O)c2ncnc(N)c12 (stereo not given),0.395 µM,> 29.5 µM
CCCCCCNC(=O)c1cc(NCc2cc(O)ccc2O)ccc1O,14.9 µM,28.6 µM
CC(CCC=O)CCOCc1ccccc1 (stereo not given),–,> 100 µM
Cc1ccc(C)c(C2=C(c3cn(C)c4ccccc34)C(=O)NC2=O)c1,> 25 µM,> 25 µM
O=C(Nc1nc2ccc(C(F)(F)F)cc2s1)c1cc(Cl)ccc1O,0.629 µM,> 100 µM
COc1cnc2c(c1)C(=O)c1c-2n(CCCNC(C)C)c(=O)c2cc(Cl)ccc12,0.439 µM,2.61 µM
COc1ccc2c(c1)CCCC(Br)C2=O (stereo not given),–,22.3 µM
COc1ccc(-n2cc(-c3cc(OC)c(OC)c(OC)c3)c(C(=O)C(F)(F)F)c2C)cc1,> 100 µM,> 100 µM
COc1cc(N(CCC#N)CCC#N)ccc1/C(N=Nc1ccc([N+](=O)[O-])cc1)=N/NC(=O)c1cc(Br)ccc1O,58.5 µg/mL,> 150 µg/mL
C=C1C(=O)OC2CCN3CC=C(COC(=O)C(C)(O)C4(CO4)C1C)C23 (stereo not given),–,> 100 µM
CS(=O)(=O)Nc1ccc2c(c1)oc(=O)c1ccccc12,–,> 100 µM

# Test system: NCI-H522 lung
# Experiment: inhibition of tumour cell growth, NCI panel, 48 h
Structure (SMILES),GI50,TGI
O=C1/C(=C/c2ccc(Br)cc2)COc2ccc(O)c(O)c21,0.158 µM,0.348 µM
N#Cc1c(NN)n(C2OC(CO)C(O)C2O)c2ncnc(N)c12 (stereo not given),0.198 µM,0.469 µM
CCCCCCNC(=O)c1cc(NCc2cc(O)ccc2O)ccc1O,0.265 µM,0.752 µM
CC(CCC=O)CCOCc1ccccc1 (stereo not given),–,> 100 µM
Cc1ccc(C)c(C2=C(c3cn(C)c4ccccc34)C(=O)NC2=O)c1,> 25 µM,> 25 µM
O=C(Nc1nc2ccc(C(F)(F)F)cc2s1)c1cc(Cl)ccc1O,0.278 µM,2.08 µM
COc1cnc2c(c1)C(=O)c1c-2n(CCCNC(C)C)c(=O)c2cc(Cl)ccc12,0.133 µM,1.97 µM
COc1ccc2c(c1)CCCC(Br)C2=O (stereo not given),–,0.837 µM
COc1ccc(-n2cc(-c3cc(OC)c(OC)c(OC)c3)c(C(=O)C(F)(F)F)c2C)cc1,20 µM,> 100 µM
COc1cc(N(CCC#N)CCC#N)ccc1/C(N=Nc1ccc([N+](=O)[O-])cc1)=N/NC(=O)c1cc(Br)ccc1O,53.4 µg/mL,> 150 µg/mL
C=C1C(=O)OC2CCN3CC=C(COC(=O)C(C)(O)C4(CO4)C1C)C23 (stereo not given),–,> 100 µM
CS(=O)(=O)Nc1ccc2c(c1)oc(=O)c1ccccc12,–,> 100 µM

# Test system: T-47D breast
# Experiment: inhibition of tumour cell growth, NCI panel, 48 h
Structure (SMILES),GI50,TGI
O=C1/C(=C/c2ccc(Br)cc2)COc2ccc(O)c(O)c21,0.906 µM,3.16 µM
N#Cc1c(NN)n(C2OC(CO)C(O)C2O)c2ncnc(N)c12 (stereo not given),0.0191 µM,0.118 µM
CCCCCCNC(=O)c1cc(NCc2cc(O)ccc2O)ccc1O,1.92 µM,5 µM
CC(CCC=O)CCOCc1ccccc1 (stereo not given),–,> 100 µM
Cc1ccc(C)c(C2=C(c3cn(C)c4ccccc34)C(=O)NC2=O)c1,14 µM,> 25 µM
O=C(Nc1nc2ccc(C(F)(F)F)cc2s1)c1cc(Cl)ccc1O,0.303 µM,2.96 µM
COc1cnc2c(c1)C(=O)c1c-2n(CCCNC(C)C)c(=O)c2cc(Cl)ccc12,0.278 µM,2.55 µM
COc1ccc2c(c1)CCCC(Br)C2=O (stereo not given),–,> 100 µM
COc1ccc(-n2cc(-c3cc(OC)c(OC)c(OC)c3)c(C(=O)C(F)(F)F)c2C)cc1,3.81 µM,> 100 µM
COc1cc(N(CCC#N)CCC#N)ccc1/C(N=Nc1ccc([N+](=O)[O-])cc1)=N/NC(=O)c1cc(Br)ccc1O,34.6 µg/mL,87 µg/mL
C=C1C(=O)OC2CCN3CC=C(COC(=O)C(C)(O)C4(CO4)C1C)C23 (stereo not given),–,> 100 µM
CS(=O)(=O)Nc1ccc2c(c1)oc(=O)c1ccccc12,–,> 100 µM
